Source: patent US20240059688A1, “CONOLIDINE ANALOGUES AS SELECTIVE ACKR3 MODULATORS FOR THE TREATMENT OF CANCER” (Luxembourg Institute of Health (LIH), priority 2020, published 2024)

Legend:
human CXCR4 = target: T1, human CXCR4 (Homo sapiens, UniProt P61073); assay: CXCR4 β-arrestin recruitment assay (PathHunter); type: cell-based; conditions: human CXCR4-C2Cl2 cells, relative to CXCL-12
T1 construct: host or cells: C2C12
Experimental: (§1) Compounds were evaluated for agonist activity using a β-arrestin recruitment assay based on β-galactosidase complementation (PathHunter, DiscoverX). Stable human ACKR3-β-arrestin-2-CHO cells (DiscoverX) were plated into 96-well white-walled assay plates at 15,000 cells/well in Cell Plating Reagent 2 (DiscoveRx) and incubated at 37° C., 5% CO2 overnight. The next day, test compounds were prepared at 10× concentration in DPBS/1% DMSO and 10 μL was added to the cells. CXCL-12 was included as a positive agonist control. Following a 1.5 hr incubation at 37° C., 55 μL of detection reagent (prepared according to the manufacturer's specifications) was added to each well. The plate was incubated at room temperature for 1 hr, after which luminescence was measured at 1 sec/well using an EnSpire multimode plate reader (PerkinElmer). Relative luminescence units (RLU) were plotted against the log of compound concentration and data were fit to a three-parameter logistic curve to generate EC50 values (GraphPad Prism). EC50 and % Emax values are reported as means±SEM and are the result of at least two independent experiments performed in duplicate. The CXCR4 assay was run similarly except that human CXCR4-C2Cl2 cells (DiscoverX) were plated at 20,000 cells/well in Cell Plating Reagent 9. The next day, the media was removed and cells were incubated with Cell Plating Reagent 4 for 3 hrs, after which the assay was conducted as described above.

ACKR3 = ACKR3 (Homo sapiens, UniProt P25106); assay: ACKR3 β-arrestin recruitment assay (PathHunter, β-galactosidase complementation); type: cell-based; conditions: for EC50: stable human ACKR3-β-arrestin-2-CHO cells, mean ± SEM, at least two independent experiments in duplicate; for Emax: read-out: ACKR3 β-arrestin % CXCL12 Emax ± SEM
Experimental: as §1

Sequence of ACKR3 (P25106 whole entry): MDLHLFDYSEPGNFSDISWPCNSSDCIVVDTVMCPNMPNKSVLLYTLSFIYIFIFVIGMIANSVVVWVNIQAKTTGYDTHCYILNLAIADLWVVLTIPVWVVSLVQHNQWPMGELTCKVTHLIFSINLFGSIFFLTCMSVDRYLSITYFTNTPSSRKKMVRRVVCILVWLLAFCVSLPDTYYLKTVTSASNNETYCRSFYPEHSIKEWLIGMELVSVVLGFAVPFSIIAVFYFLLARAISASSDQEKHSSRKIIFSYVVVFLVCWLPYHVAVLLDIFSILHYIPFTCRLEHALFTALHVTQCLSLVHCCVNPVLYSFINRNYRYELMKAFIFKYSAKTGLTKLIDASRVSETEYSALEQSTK
T1 sequence (P61073 whole entry): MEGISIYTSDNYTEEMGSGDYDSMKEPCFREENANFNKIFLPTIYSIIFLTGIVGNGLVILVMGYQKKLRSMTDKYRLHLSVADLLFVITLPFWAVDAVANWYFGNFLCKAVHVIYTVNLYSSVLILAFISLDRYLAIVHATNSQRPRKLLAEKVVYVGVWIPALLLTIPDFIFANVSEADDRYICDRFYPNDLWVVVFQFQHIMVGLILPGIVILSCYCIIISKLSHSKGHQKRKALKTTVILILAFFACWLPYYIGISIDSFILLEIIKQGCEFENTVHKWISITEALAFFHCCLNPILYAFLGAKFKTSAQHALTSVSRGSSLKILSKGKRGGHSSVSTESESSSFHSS

Compound	CXCR4 β-arrestin % CXCL-12Emax (n = 2) (human CXCR4) [%]	EC50 (ACKR3) [µM]	Emax (ACKR3) [%]
CCCCCN1CCC(C(=O)c2cc3ccccc3[nH]2)CC1 [WW-19, 1H-indol-2-yl(1-pentylpiperidin-4-yl)methanone]	9	> 10	–
CCCCCN1CCC(C(=O)c2cc3ccccc3n2CCCCC)CC1 [WW-20]	11	1.77 ± 0.078	154 ± 7
CCCCCN1CCN(Cc2cc3ccccc3[nH]2)CC1 [WW-21, 2-[(4-pentylpiperazin-1-yl)methyl]-1H-indole]	10	> 10	–
O=C(c1cc2ccccc2[nH]1)N1CCNCC12CC2 [WW-22, 2-(4,7-diazaspiro[2.5]oct-4-ylcarbonyl)-1H-indole]	4	> 10	–
CCCCCN1CCN(C(=O)c2cc3ccccc3[nH]2)C2(CC2)C1 [WW-23, 2-[(7-pentyl-4,7-diazaspiro[2.5]oct-4-yl)carbonyl]-1H-indole]	11	3.04 ± 0.13	156 ± 11
CCCCCN1CCN(C(=O)c2cc3ccccc3n2CCCCC)C2(CC2)C1 [WW-24, 1-pentyl-2-[(7-pentyl-4,7-diazaspiro[2.5]oct-4-yl)carbonyl]-1H-indole]	5	6.05 ± 0.53	154 ± 17
CCCCCN1CCN(C(=O)c2cc3ccccc3[nH]2)C(CC)C1 (stereo not drawn) [WW-25, 2-[(2-ethyl-4-pentylpiperazin-1-yl)carbonyl]-1H-indole]	4	> 10	–
CC(C)(C)OC(=O)N1CC[C@H](NC(=O)c2cc3ccccc3[nH]2)C1 [WW-26, Tert-butyl (3S)-3-[(1H-indol-2-ylcarbonyl)amino]pyrrolidine-1-carboxylate]	9	> 10	–
CC(C)(C)OC(=O)N1CCCN(C(=O)c2cc3ccccc3[nH]2)CC1 [WW-27, tert-butyl 4-(1H-indol-2-ylcarbonyl)-1,4-diazepane-1-carboxylate]	4	> 10	–
CCCCCN1CCN(C(=O)c2cc3ccccc3[nH]2)CC1 [WW-28, 2-[(4-pentylpiperazin-1-yl)carbonyl]-1H-indole]	11	> 10	–
CCCCCN1CC[C@H](NC(=O)c2cc3ccccc3[nH]2)C1 [WW-29, N-[(3S)-1-pentylpyrrolidin-3-yl]-1H-indole-2-carboxamide]	15	1.92 ± 0.056	145 ± 4
CCCCCN1CCCN(C(=O)c2cc3ccccc3[nH]2)CC1 [WW-30, 2-[(4-pentyl-1,4-diazepan-1-yl)carbonyl]-1H-indole]	7	> 10	–
NC1CN(C(=O)c2cc3ccccc3[nH]2)C1 [WW-31, 1-(1H-indole-2-ylcarbonyl)azetidin-3-amine]	7	> 10	–
CCCCCNC1CN(C(=O)c2cc3ccccc3[nH]2)C1 [WW-32, 1-(1H-indole-2-ylcarbonyl)-N-pentylazetidin-3-amine]	9	> 10	–
O=C(N[C@H]1CCN(c2nccn3cccc23)C1)c1cc2ccccc2[nH]1 [WW-33, N-[(3S)-1-pyrrolo[1,2-a]pyrazin-1-ylpyrrolidin-3-yl]-1H-indole-2-carboxamide]	6	0.377 ± 0.009	150 ± 3
CCCCCN1CC[C@H](NC(=O)c2cc3cc(OC)c(OC)c(OC)c3[nH]2)C1 [WW-43, 5,6,7-Trimethoxy-N-[(3S)-1-pentylpyrrolidin-3-yl]-1H-indole-2-carboxamide]	10	> 10	–

Compound	CXCR4 β-arrestin % CXCL-12Emax (n = 2) (human CXCR4) [%]	EC50 (ACKR3) [µM]	Emax (ACKR3) [%]
CCCCCN1CC[C@H](NC(=O)c2cc3ccc(-c4ccc(F)cc4)cc3[nH]2)C1 [WW-44, 6-(4-Fluorophenyl)-N-[(3S)-1-pentylpyrrolidin-3-yl]-1H-indole-2-carboxamide]	26	4.14 ± 0.11	110 ± 7
CCCCCN1CC[C@H](NC(=O)c2cc3ccc(-c4ccc(OC)cc4)cc3[nH]2)C1 [WW-45, 6-(4-methoxyphenyl)-N-[(3S)-1-pentylpyrrolidin-3-yl]-1H-indole-2-carboxamide]	6	> 10	–
CCCCCN1CC[C@H](NC(=O)c2cc3cccc(-c4ccc(F)cc4)c3[nH]2)C1 [WW-46, 7-(4-Fluorophenyl)-N-[(3S)-1-pentylpyrrolidin-3-yl]-1H-indole-2-carboxamide]	7	0.504 ± 0.062	119 ± 8
CCCCCN1CC[C@H](NC(=O)c2cc3c(OC)c(OC)c(OC)cc3[nH]2)C1 [WW-47, 4,5,6-Trimethoxy-N-[(3S)-1-pentylpyrrolidin-3-yl]-1H-indole-2-carboxamide]	18	> 10	–
C/C=C1/CN(CCCCC)CC[C@H]1C(=O)c1cc2cc(Cl)ccc2[nH]1 [WW-54, (5-chloro-1H-indol-2-yl)[(3E,4R)-3-ethylidene-1-pentylpiperidin-4-yl]methanone]	15	1.96 ± 0.027	129 ± 4
C/C=C1/CN(CCCCC)CC[C@H]1C(=O)c1cc2ccc(F)cc2[nH]1 [WW-55, [(3E,4R)-3-ethylidene-1-pentylpiperidin-4-yl](6-fluoro-1H-indol-2-yl)methanone]	10	5 ± 0.6	90 ± 1
CCCCCN1CCC(C)(C(=O)c2cc3ccccc3[nH]2)CC1 [WW-57, 1H-Indole-2-yl(4-methyl-1-pentylpiperidin-4-yl)methanone]	5	6.45 ± 0.72	96 ± 4
C/C=C1/CN(CCCCN)CC[C@H]1C(=O)c1cc2ccccc2[nH]1 [WW-58, (3E,4R)-(3-ethylidene-1-(4-aminobutyl)piperidin-4-yl)(1H-indol-2-yl)methanone]	3	> 10	–
C/C=C1/CN(CCCCCN)CC[C@H]1C(=O)c1cc2ccccc2[nH]1 [WW-59, (3E,4R)-(3-ethylidene-1-(5-aminopentyl)piperidin-4-yl)(1H-indol-2-yl)methanone]	9	> 10	–
C/C=C1/CN(CCOCCN)CC[C@H]1C(=O)c1cc2ccccc2[nH]1 [WW-60, (3E,4R)-(3-ethylidene-1-(2-ethoxy-(2-aminoethyl))piperidin-4-yl)(1H-indol-2-yl)methanone]	11	> 10	–
C/C=C1/CN(Cc2ccc(OC)cc2)CC[C@H]1C(O)c1cc2ccccc2n1S(=O)(=O)c1ccccc1 (stereo partly drawn) [WW-61, [(3E,4R)-3-ethylidene-1-(4-methoxybenzyl)piperidin-4-yl][1-(phenylsulfonyl)-1H-indol-2-yl]methanol]	10	0.527 ± 0.13	156 ± 7
C/C=C1/CN(CCCCCC)CC[C@H]1C(=O)c1cc2ccccc2[nH]1 [WW-62, [(3E,4R)-3-ethylidene-1-hexylpiperidin-4-yl](1H-indol-2-yl)methanone]	5	3.04 ± 0.32	137 ± 3
C/C=C1/CN(CCCC(C)C)CC[C@H]1C(=O)c1cc2ccccc2[nH]1 [WW-63, [(3E,4R)-3-ethylidene-1-(4-methylpentyl)piperidin-4-yl](1H-indol-2-yl)methanone]	15	1.78 ± 0.16	152 ± 1
CCOC(=O)C(c1[nH]c2ccccc2c1C=O)C1CCN(S(=O)(=O)c2ccc(C)cc2)C/C1=N\O[Si](C)(C)C(C)(C)C (stereo not drawn) [WW-64]	16	> 10	–
CCOC(=O)C(c1[nH]c2ccccc2c1C=O)C1CCN(S(=O)(=O)c2ccc(C)cc2)C/C1=N\O (stereo not drawn) [WW-65, ethyl (3-formyl-1H-indol-2-yl){(3Z)-3-(hydroxyamino)-1-[(4-methylphenyl)sulfonyl]piperidin-4-yl}acetate]	11	> 10	–
